{"source": "patent US6355799B1", "about": "“Substituted benzene compounds, process for their preparation, and herbicidal and defoliant compositions containing them” (ISK Americas Incorporated, priority 1997, dated 2002)", "assay_type_in_all_cases": "in vivo", "key": {"[1]": {"tested_on": "redroot pigweed (Amaranthus retroflexus, AMARE)", "test": "Pre-emerge test, greenhouse herbicide activity screening", "conditions": "pre-emerge, rated 14 days after application, 0 = no damage, 100 = complete death", "in_short": "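Compounds in acetone were track-sprayed at 187 l/ha, 15–1000 g ai/ha, onto sandy loam pots. Pre-emerge seeds were sown one day before spraying, with surface watering afterwards. Post-emerge plants were at the 2–3 leaf stage and sprayed with 0.25% v/v non-ionic surfactant. Injury was rated 0–100 at 14 days.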"}, "[2]": {"tested_on": "field corn (Zea mays L., var. Dekalb 535, CORN)", "test": "Post-emerge test, crop safety", "conditions": "phytotoxicity rating 0-100 (0 no damage, 100 complete death), 14 days after application", "in_short": "(§1)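 Herbicidal damage is scored 0 (none) to 100 (complete plant death) two weeks after a simulated field spray. Rates span 15–1000 g ai/ha, delivered in acetone at 187 l/ha. For post-emergence treatments, plants have 2–3 leaves and the spray carries 0.25% v/v non-ionic surfactant.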"}, "[3]": {"tested_on": "upland rice (Oryza sp., var. Tebonnet, RICE)", "test": "Post-emerge test, crop safety", "conditions": "phytotoxicity rating 0-100 (0 no damage, 100 complete death), 14 days after application", "in_short": "as §1"}, "[4]": {"tested_on": "barnyardgrass (Echinochloa crus-galli, ECHCG)", "test": "Post-emerge test, greenhouse herbicide activity screening", "conditions": "phytotoxicity rating 0-100 (0 no damage, 100 complete death), 14 days after application", "in_short": "(§2)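 Applied at 15–1000 g ai/ha from acetone in 187 l/ha spray volume. Post-emergence applications included 0.25% v/v non-ionic surfactant and reached plants sown 8–21 days before. Pre-emergence applications were incorporated by surface watering. Efficacy or crop damage was rated on a 0–100 scale after 14 days.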"}, "[5]": {"tested_on": "ivyleaf morningglory (Ipomoea hederacea, IPOHE)", "test": "Post-emerge test, greenhouse herbicide activity screening", "conditions": "phytotoxicity rating 0-100 (0 no damage, 100 complete death), 14 days after application", "in_short": "as §2"}, "[6]": {"tested_on": "green foxtail (Setaria viridis, SETVI)", "test": "Post-emerge test, greenhouse herbicide activity screening", "conditions": "phytotoxicity rating 0-100 (0 no damage, 100 complete death), 14 days after application", "in_short": "as §2"}, "[7]": {"tested_on": "large crabgrass (Digitaria sanguinalis, DIGSA)", "test": "Post-emerge test, greenhouse herbicide activity screening", "conditions": "phytotoxicity rating 0-100 (0 no damage, 100 complete death), 14 days after application", "in_short": "as §2"}, "[8]": {"tested_on": "redroot pigweed (Amaranthus retroflexus, AMARE)", "test": "Post-emerge test, greenhouse herbicide activity screening", "conditions": "phytotoxicity rating 0-100 (0 no damage, 100 complete death), 14 days after application", "in_short": "as §2"}, "[9]": {"tested_on": "lambsquarters (Chenopodium album, CHEAL)", "test": "Post-emerge test, greenhouse herbicide activity screening", "conditions": "phytotoxicity rating 0-100 (0 no damage, 100 complete death), 14 days after application", "in_short": "as §2"}, "[10]": {"tested_on": "johnsongrass (Sorghum halepense, SORHA)", "test": "Post-emerge test, greenhouse herbicide activity screening", "conditions": "phytotoxicity rating 0-100 (0 no damage, 100 complete death), 14 days after application", "in_short": "as §2"}, "[11]": {"tested_on": "velvetleaf (Abutilon theophrasti, ABUTH)", "test": "Post-emerge test, greenhouse herbicide activity screening", "conditions": "phytotoxicity rating 0-100 (0 no damage, 100 complete death), 14 days after application", "in_short": "as §2"}, "[12]": {"tested_on": "field corn (Zea mays L., var. Dekalb 535, CORN)", "test": "Pre-emerge test, crop safety", "conditions": "pre-emerge, rated 14 days after application, 0 = no damage, 100 = complete death", "in_short": "(§3)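 Visual ratings on a 0-100 scale (0 no damage, 100 all plants dead) were taken at 14 days after treatment. Rates of 15-1000 g ai/ha in acetone, 187 l/ha, were sprayed onto soil one day after planting (pre-emerge) or onto 2-3 leaf plants with 0.25% v/v surfactant (post-emerge).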"}, "[13]": {"tested_on": "upland rice (Oryza sp., var. Tebonnet, RICE)", "test": "Pre-emerge test, crop safety", "conditions": "pre-emerge, rated 14 days after application, 0 = no damage, 100 = complete death", "in_short": "as §3"}, "[14]": {"tested_on": "barnyardgrass (Echinochloa crus-galli, ECHCG)", "test": "Pre-emerge test, greenhouse herbicide activity screening", "conditions": "pre-emerge, rated 14 days after application, 0 = no damage, 100 = complete death", "in_short": "as §1"}, "[15]": {"tested_on": "ivyleaf morningglory (Ipomoea hederacea, IPOHE)", "test": "Pre-emerge test, greenhouse herbicide activity screening", "conditions": "pre-emerge, rated 14 days after application, 0 = no damage, 100 = complete death", "in_short": "as §1"}, "[16]": {"tested_on": "green foxtail (Setaria viridis, SETVI)", "test": "Pre-emerge test, greenhouse herbicide activity screening", "conditions": "pre-emerge, rated 14 days after application, 0 = no damage, 100 = complete death", "in_short": "as §1"}, "[17]": {"tested_on": "large crabgrass (Digitaria sanguinalis, DIGSA)", "test": "Pre-emerge test, greenhouse herbicide activity screening", "conditions": "pre-emerge, rated 14 days after application, 0 = no damage, 100 = complete death", "in_short": "as §1"}, "[18]": {"tested_on": "lambsquarters (Chenopodium album, CHEAL)", "test": "Pre-emerge test, greenhouse herbicide activity screening", "conditions": "pre-emerge, rated 14 days after application, 0 = no damage, 100 = complete death", "in_short": "as §1"}, "[19]": {"tested_on": "sicklepod (Cassia obtusifolia, CASOB)", "test": "Pre-emerge test, greenhouse herbicide activity screening", "conditions": "pre-emerge, rated 14 days after application, 0 = no damage, 100 = complete death", "in_short": "as §1"}, "[20]": {"tested_on": "johnsongrass (Sorghum halepense, SORHA)", "test": "Pre-emerge test, greenhouse herbicide activity screening", "conditions": "pre-emerge, rated 14 days after application, 0 = no damage, 100 = complete death", "in_short": "as §1"}, "[21]": {"tested_on": "velvetleaf (Abutilon theophrasti, ABUTH)", "test": "Pre-emerge test, greenhouse herbicide activity screening", "conditions": "pre-emerge, rated 14 days after application, 0 = no damage, 100 = complete death", "in_short": "as §1"}}, "data": [{"smiles": "Cn1c(C(F)(F)F)cc(=O)n(-c2c(F)cc(Cl)c(OCC#N)c2NC(=O)C(F)(F)F)c1=O", "note": "[2-11]", "values": [{"measurement": "Pre-emerge Herbicidal Activity AMARE (phytotoxicity rating, scale 0-100)", "setting": "[1]; 63 g ai/ha", "value": 30}, {"measurement": "Pre-emerge Herbicidal Activity AMARE (phytotoxicity rating, scale 0-100)", "setting": "[1]; 250 g ai/ha", "value": 100}, {"measurement": "Post-emerge Herbicidal Activity CORN (crop damage)", "setting": "[2]; 63 g ai/ha", "value": 5}, {"measurement": "Post-emerge Herbicidal Activity CORN (crop damage)", "setting": "[2]; 250 g ai/ha", "value": 5}, {"measurement": "Post-emerge Herbicidal Activity RICE (crop damage)", "setting": "[3]; 63 g ai/ha", "value": 0}, {"measurement": "Post-emerge Herbicidal Activity RICE (crop damage)", "setting": "[3]; 250 g ai/ha", "value": 0}, {"measurement": "Post-emerge Herbicidal Activity ECHCG", "setting": "[4]; 63 g ai/ha", "value": 0}, {"measurement": "Post-emerge Herbicidal Activity ECHCG", "setting": "[4]; 250 g ai/ha", "value": 0}, {"measurement": "Post-emerge Herbicidal Activity IPOHE", "setting": "[5]; 63 g ai/ha", "value": 50}, {"measurement": "Post-emerge Herbicidal Activity IPOHE", "setting": "[5]; 250 g ai/ha", "value": 60}, {"measurement": "Post-emerge Herbicidal Activity SETVI", "setting": "[6]; 63 g ai/ha", "value": 0}, {"measurement": "Post-emerge Herbicidal Activity SETVI", "setting": "[6]; 250 g ai/ha", "value": 20}, {"measurement": "Post-emerge Herbicidal Activity DIGSA", "setting": "[7]; 63 g ai/ha", "value": 0}, {"measurement": "Post-emerge Herbicidal Activity DIGSA", "setting": "[7]; 250 g ai/ha", "value": 0}, {"measurement": "Post-emerge Herbicidal Activity AMARE", "setting": "[8]; 63 g ai/ha", "value": 0}, {"measurement": "Post-emerge Herbicidal Activity AMARE", "setting": "[8]; 250 g ai/ha", "value": 30}, {"measurement": "Post-emerge Herbicidal Activity CHEAL", "setting": "[9]; 63 g ai/ha", "value": 40}, {"measurement": "Post-emerge Herbicidal Activity CHEAL", "setting": "[9]; 250 g ai/ha", "value": 65}, {"measurement": "Post-emerge Herbicidal Activity SORHA", "setting": "[10]; 63 g ai/ha", "value": 0}, {"measurement": "Post-emerge Herbicidal Activity SORHA", "setting": "[10]; 250 g ai/ha", "value": 0}, {"measurement": "Post-emerge Herbicidal Activity ABUTH", "setting": "[11]; 63 g ai/ha", "value": 80}, {"measurement": "Post-emerge Herbicidal Activity ABUTH", "setting": "[11]; 250 g ai/ha", "value": 100}, {"measurement": "Pre-emerge crop damage CORN (phytotoxicity rating, scale 0-100)", "setting": "[12]; 63 g ai/ha", "value": 0}, {"measurement": "Pre-emerge crop damage CORN (phytotoxicity rating, scale 0-100)", "setting": "[12]; 250 g ai/ha", "value": 10}, {"measurement": "Pre-emerge crop damage RICE (phytotoxicity rating, scale 0-100)", "setting": "[13]; 63 g ai/ha", "value": 10}, {"measurement": "Pre-emerge crop damage RICE (phytotoxicity rating, scale 0-100)", "setting": "[13]; 250 g ai/ha", "value": 50}, {"measurement": "Pre-emerge Herbicidal Activity ECHCG (phytotoxicity rating, scale 0-100)", "setting": "[14]; 63 g ai/ha", "value": 0}, {"measurement": "Pre-emerge Herbicidal Activity ECHCG (phytotoxicity rating, scale 0-100)", "setting": "[14]; 250 g ai/ha", "value": 40}, {"measurement": "Pre-emerge Herbicidal Activity IPOHE (phytotoxicity rating, scale 0-100)", "setting": "[15]; 63 g ai/ha", "value": 70}, {"measurement": "Pre-emerge Herbicidal Activity IPOHE (phytotoxicity rating, scale 0-100)", "setting": "[15]; 250 g ai/ha", "value": 100}, {"measurement": "Pre-emerge Herbicidal Activity SETVI (phytotoxicity rating, scale 0-100)", "setting": "[16]; 63 g ai/ha", "value": 0}, {"measurement": "Pre-emerge Herbicidal Activity SETVI (phytotoxicity rating, scale 0-100)", "setting": "[16]; 250 g ai/ha", "value": 100}, {"measurement": "Pre-emerge Herbicidal Activity DIGSA (phytotoxicity rating, scale 0-100)", "setting": "[17]; 63 g ai/ha", "value": 0}, {"measurement": "Pre-emerge Herbicidal Activity DIGSA (phytotoxicity rating, scale 0-100)", "setting": "[17]; 250 g ai/ha", "value": 60}, {"measurement": "Pre-emerge Herbicidal Activity CHEAL (phytotoxicity rating, scale 0-100)", "setting": "[18]; 63 g ai/ha", "value": 100}, {"measurement": "Pre-emerge Herbicidal Activity CHEAL (phytotoxicity rating, scale 0-100)", "setting": "[18]; 250 g ai/ha", "value": 100}, {"measurement": "Pre-emerge Herbicidal Activity CASOB (phytotoxicity rating, scale 0-100)", "setting": "[19]; 63 g ai/ha", "value": 0}, {"measurement": "Pre-emerge Herbicidal Activity CASOB (phytotoxicity rating, scale 0-100)", "setting": "[19]; 250 g ai/ha", "value": 60}, {"measurement": "Pre-emerge Herbicidal Activity SORHA (phytotoxicity rating, scale 0-100)", "setting": "[20]; 63 g ai/ha", "value": 0}, {"measurement": "Pre-emerge Herbicidal Activity SORHA (phytotoxicity rating, scale 0-100)", "setting": "[20]; 250 g ai/ha", "value": 50}, {"measurement": "Pre-emerge Herbicidal Activity ABUTH (phytotoxicity rating, scale 0-100)", "setting": "[21]; 63 g ai/ha", "value": 90}, {"measurement": "Pre-emerge Herbicidal Activity ABUTH (phytotoxicity rating, scale 0-100)", "setting": "[21]; 250 g ai/ha", "value": 100}]}]}
